Earlier results in patent US8535722B2, “Functionally graded biocompatible coating and coated implant” (priority 2005, dated 2013).

[Ag] [Ag/Ag^+, silver]
threshold of cytotoxicity in vivo: 10 ppm
